Source: patent EP0908457B1, “3-(1,2-benzisothiazol- and isoxazol-5-Y1)-2,4(1H,3H)-pyrimidinedione or thione and 3-(1,2-benzisothiazol- and isoxazol-5-y1)-4(3H)-pyrimidinone or thione herbicidal agents” (BASF AKTIENGESELLSCHAFT, priority 1997, dated 1999)

Tests used:
[1] = system: Echinochloa oryzoides (Ard.) Fritsch.; test: Preemergence weed control under flooded paddy conditions, ECHORC (Watergrass (Calif.)); assay type: in vivo; conditions: preemergence, flooded paddy, rated three to four weeks after treatment
Cyperus iria = test: Preemergence weed control under flooded paddy conditions, CYPIR (Rice Flatsedge); assay type: in vivo; conditions: preemergence, flooded paddy, rated three to four weeks after treatment
[2] = system: Cyperus serotinus, Rottb.; test: Preemergence weed control under flooded paddy conditions, CYPSE (Flatsedge); assay type: in vivo; conditions: preemergence, rated three to four weeks after treatment
[3] = system: Monochoria vaginalis, Presl.; test: Preemergence weed control under flooded paddy conditions, MOOVA (Monochoria); assay type: in vivo; conditions: preemergence, flooded paddy, rated three to four weeks after treatment
Sagittaria pygmaea, L. = test: Preemergence weed control under flooded paddy conditions, SAGPY (Arrowhead (Pygmaea)); assay type: in vivo; conditions: preemergence, flooded paddy, rated three to four weeks after treatment
[4] = system: Oryza sativa, (L.) Tebonnet; test: Rice tolerance to post-transplant applications under flooded paddy conditions (Example 187), ORYSAT (Rice, Tebonnet); conditions: rated three to four weeks after treatment

Row | SMILES | ECHORC herbicidal effect rating ([1]; Rate 0.0320 kg/ha) | ECHORC herbicidal effect rating ([1]; Rate 0.0620 kg/ha) | ECHORC herbicidal effect rating ([1]; Rate 0.1250 kg/ha) | ECHORC herbicidal effect rating ([1]; Rate 0.2500 kg/ha) | CYPIR herbicidal effect rating (Cyperus iria; Rate 0.0320 kg/ha) | CYPIR herbicidal effect rating (Cyperus iria; Rate 0.0620 kg/ha) | CYPIR herbicidal effect rating (Cyperus iria; Rate 0.1250 kg/ha) | CYPIR herbicidal effect rating (Cyperus iria; Rate 0.2500 kg/ha) | CYPSE herbicidal effect rating ([2]; Rate 0.0320 kg/ha) | CYPSE herbicidal effect rating ([2]; Rate 0.0620 kg/ha) | CYPSE herbicidal effect rating ([2]; Rate 0.1250 kg/ha) | CYPSE herbicidal effect rating ([2]; Rate 0.2500 kg/ha) | MOOVA herbicidal effect rating ([3]; Rate 0.0320 kg/ha) | MOOVA herbicidal effect rating ([3]; Rate 0.0620 kg/ha) | MOOVA herbicidal effect rating ([3]; Rate 0.1250 kg/ha) | MOOVA herbicidal effect rating ([3]; Rate 0.2500 kg/ha) | SAGPY herbicidal effect rating (Sagittaria pygmaea, L.; Rate 0.0320 kg/ha) | SAGPY herbicidal effect rating (Sagittaria pygmaea, L.; Rate 0.0620 kg/ha) | SAGPY herbicidal effect rating (Sagittaria pygmaea, L.; Rate 0.1250 kg/ha) | SAGPY herbicidal effect rating (Sagittaria pygmaea, L.; Rate 0.2500 kg/ha) | also measured
1 | Cn1c(C(F)(F)F)cc(=O)n(-c2ccc3snc(C=C(Br)Br)c3c2)c1=O [Example 284, 2,4(1H,3H)-Pyrimidinedione, 3-[3-(2,2-dibromovinyl)-1,2-benzisothiazol-5-yl]-1-methyl-6-(trifluoromethyl)-] | 0.0 | 0.0 | 0.0 | 0.0 | 4.0 | 9.0 | 9.0 | 9.0 | 0.0 | 0.0 | 2.0 | 9.0 | 4.0 | 9.0 | 9.0 | 9.0 | 0.0 | 0.0 | 0.0 | 0.0 | ORYSAT herbicidal effect rating ([4]; Rate 0.0320 kg/ha): 0.0; ORYSAT herbicidal effect rating ([4]; Rate 0.0620 kg/ha): 0.0; ORYSAT herbicidal effect rating ([4]; Rate 0.1250 kg/ha): 0.0; ORYSAT herbicidal effect rating ([4]; Rate 0.2500 kg/ha): 0.0
2 | CC(=O)/C=C/c1nsc2ccc(-n3c(=O)cc(C(F)(F)F)n(C)c3=O)cc12 [Example 285, 2,4(1H,3H)-Pyrimidinedione, 1-methyl-3-[3-(3-oxo-1-butenyl)-1,2-benzisothiazol-5-yl]-6-(trifluoromethyl)-, (E)-] | 3.0 | 7.0 | 7.0 | 7.0 | 5.0 | 9.0 | 9.0 | 9.0 | 0.0 | 0.0 | 0.0 | 0.0 | 4.0 | 9.0 | 9.0 | 9.0 | 0.0 | 0.0 | 0.0 | 3.0 | ORYSAT herbicidal effect rating ([4]; Rate 0.0320 kg/ha): 3.0; ORYSAT herbicidal effect rating ([4]; Rate 0.0620 kg/ha): 7.0; ORYSAT herbicidal effect rating ([4]; Rate 0.1250 kg/ha): 7.0; ORYSAT herbicidal effect rating ([4]; Rate 0.2500 kg/ha): 7.0
3 | Cn1c(C(F)(F)F)cc(=O)n(-c2ccc3snc(C=C(F)Br)c3c2)c1=O [Example 286, 2,4(1H,3H)-Pyrimidinedione, 3-[3-(2-bromo-2-fluorovinyl)-1,2-benzisothiazol-5-yl]-1-methyl-6-(trifluoromethyl)-] | 0.0 | 0.0 | 3.0 | 8.0 | 3.0 | 7.0 | 7.0 | 9.0 | 0.0 | 0.0 | 0.0 | 0.0 | 9.0 | 9.0 | 9.0 | 9.0 | 0.0 | 0.0 | 0.0 | 0.0 | ORYSAT herbicidal effect rating ([4]; Rate 0.0320 kg/ha): 0.0; ORYSAT herbicidal effect rating ([4]; Rate 0.0620 kg/ha): 0.0; ORYSAT herbicidal effect rating ([4]; Rate 0.1250 kg/ha): 1.0; ORYSAT herbicidal effect rating ([4]; Rate 0.2500 kg/ha): 2.0
4 | Cn1c(C(F)(F)F)cc(=O)n(-c2ccc3snc(C=C(Cl)Cl)c3c2)c1=O [Example 287, 2,4(1H,3H)-Pyrimidinedione, 3-[3-(2,2-dichlorovinyl)-1,2-benzisothiazol-5-yl]-1-methyl-6-(trifluoromethyl)-] | 0.0 | 2.0 | 5.0 | 7.0 | 0.0 | 9.0 | 9.0 | 9.0 | 0.0 | 0.0 | 0.0 | 4.0 | 9.0 | 9.0 | 9.0 | 9.0 | 0.0 | 0.0 | 0.0 | 0.0 | ORYSAT herbicidal effect rating ([4]; Rate 0.0320 kg/ha): 0.0; ORYSAT herbicidal effect rating ([4]; Rate 0.0620 kg/ha): 3.0; ORYSAT herbicidal effect rating ([4]; Rate 0.1250 kg/ha): 3.0; ORYSAT herbicidal effect rating ([4]; Rate 0.2500 kg/ha): 5.0
5 | Cc1ccc(OCC(=O)NS(=O)(=O)c2sc(C)nc2C)c(-c2nsc3ccc(-n4c(=O)cc(C(F)(F)F)n(C)c4=O)cc23)c1 [Example 288, Acetamide, 2-{{2-{5-[3,6-dihydro-3-methyl-2,6-dioxo-4-(trifluoromethyl)-1(2H)-pyrimidinyl]-1,2-benzisothiazol-3-yl}-p-tolyl}oxy}-N-[(2,4-dimethylthiazol-5-yl)sulfonyl]-] | 0.0 | 0.0 | 4.0 | 5.0 | 0.0 | 0.0 | 4.0 | 6.0 | 0.0 | 0.0 | 0.0 | 0.0 | 0.0 | 0.0 | 3.0 | 6.0 | 0.0 | 0.0 | 0.0 | 0.0 | ORYSAT herbicidal effect rating ([4]; Rate 0.0320 kg/ha): 0.0; ORYSAT herbicidal effect rating ([4]; Rate 0.0620 kg/ha): 0.0; ORYSAT herbicidal effect rating ([4]; Rate 0.1250 kg/ha): 1.0; ORYSAT herbicidal effect rating ([4]; Rate 0.2500 kg/ha): 2.0
6 | CCOc1ccc2sc(S(=O)(=O)NC(=O)COc3ccc(C)cc3-c3nsc4ccc(-n5c(=O)cc(C(F)(F)F)n(C)c5=O)cc34)nc2c1 [Example 289, Acetamide, 2-{{2-{5-[3,6-dihydro-3-methyl-2,6-dioxo-4-(trifluoromethyl)-1(2H)-pyrimidinyl]-1,2-benzisothiazol-3-yl}-p-tolyl}oxy}-N-[(5-ethoxybenzothiazol-2-yl)sulfonyl]-] | 0.0 | 2.0 | 3.0 | 4.0 | 0.0 | 0.0 | 9.0 | 9.0 | 0.0 | 0.0 | 0.0 | 0.0 | 0.0 | 0.0 | 9.0 | 9.0 | 0.0 | 0.0 | 0.0 | 0.0 | ORYSAT herbicidal effect rating ([4]; Rate 0.0320 kg/ha): 0.0; ORYSAT herbicidal effect rating ([4]; Rate 0.0620 kg/ha): 0.0; ORYSAT herbicidal effect rating ([4]; Rate 0.1250 kg/ha): 0.0; ORYSAT herbicidal effect rating ([4]; Rate 0.2500 kg/ha): 0.0
7 | Cc1ccc(OCC(=O)NS(=O)(=O)c2sc3ccc(Cl)cc3c2C)c(-c2nsc3ccc(-n4c(=O)cc(C(F)(F)F)n(C)c4=O)cc23)c1 [Example 290, Acetamide, N-[(5-chloro-3-methylbenzo[b]thien-2-yl)sulfonyl]-2-{{2-{5-[3,6-dihydro-3-methyl-2,6-dioxo-4-(trifluoromethyl)-1(2H)-pyrimidinyl]-1,2-benzisothiazol-3-yl}-p-tolyl}oxy}-] | 0.0 | 0.0 | 3.0 | 7.0 | 6.0 | 6.0 | 6.0 | 6.0 | 0.0 | 0.0 | 0.0 | 0.0 | 0.0 | 7.0 | 7.0 | 7.0 | 0.0 | 0.0 | 0.0 | 0.0 | ORYSAT herbicidal effect rating ([4]; Rate 0.0320 kg/ha): 0.0; ORYSAT herbicidal effect rating ([4]; Rate 0.0620 kg/ha): 0.0; ORYSAT herbicidal effect rating ([4]; Rate 0.1250 kg/ha): 0.0; ORYSAT herbicidal effect rating ([4]; Rate 0.2500 kg/ha): 0.0
